Read-outs that look alike come from different tables or passages of the source.
How the values were obtained:
[1] = system: A2780 ovarian carcinoma cells; test: In vitro cytotoxicity (MTT assay), A2780; type: cell-based, human
Procedure: (§1) The reference normal cell line of human fetal fibroblasts (MRC-5) was obtained from the same commercial source and maintained according to the producer’s instructions. The half-maximal inhibitory concentrations (IC50) were calculated from dose–response curves by means of the GraphPad Prism 6 software (GraphPad Software, San Diego, CA, USA).

[2] = system: A2780R Cisplatin-resistant ovarian carcinoma cells; test: In vitro cytotoxicity (MTT assay), A2780R; type: cell-based, human; details: ± standard deviation, triplicate
Procedure: as §1, with “The testing was performed on the ovarian carcinoma (A2780), Cisplatin-resistant ovarian carcinoma (A2780R), prostate adenocarcinoma (PC-3), prostate carcinoma (22Rv1), and leukemia monocytic (THP-1) and intestinal colon adenocarcinoma (LS180) human cell lines that were obtained from the ATCC collection of cell lines and cultivated according to the producer’s instructions. The reference” for “The reference”

[3] = system: PC-3 prostate adenocarcinoma cells; test: In vitro cytotoxicity (MTT assay), PC-3; type: cell-based, human; details: ± standard deviation, triplicate
Procedure: as §1, with “The testing was performed on the ovarian carcinoma (A2780), Cisplatin-resistant ovarian carcinoma (A2780R), prostate adenocarcinoma (PC-3), prostate carcinoma (22Rv1), and leukemia monocytic (THP-1) and intestinal colon adenocarcinoma (LS180) human cell lines that were obtained from the ATCC collection of cell lines and cultivated according to the producer’s instructions. The reference” for “The reference”

[4] = system: MRC5 human fetal fibroblasts; test: In vitro cytotoxicity (MTT assay), normal MRC-5 fibroblasts; type: cell-based; details: ± standard deviation, triplicate, read-out: IC50, MRC5 (healthy cells)
Procedure: as §1, with “The testing was performed on the ovarian carcinoma (A2780), Cisplatin-resistant ovarian carcinoma (A2780R), prostate adenocarcinoma (PC-3), prostate carcinoma (22Rv1), and leukemia monocytic (THP-1) and intestinal colon adenocarcinoma (LS180) human cell lines that were obtained from the ATCC collection of cell lines and cultivated according to the producer’s instructions. The reference” for “The reference”

[5] = system: human cancer cell lines (A2780, A2780R, PC-3, 22Rv1, and THP-1); test: In vitro cytotoxicity, summary statements over the panel of cell lines; type: cell-based; details: for IC50: A2780, A2780R
Procedure: as §1, with “The testing was performed on the ovarian carcinoma (A2780), Cisplatin-resistant ovarian carcinoma (A2780R), prostate adenocarcinoma (PC-3), prostate carcinoma (22Rv1), and leukemia monocytic (THP-1) and intestinal colon adenocarcinoma (LS180) human cell lines that were obtained from the ATCC collection of cell lines and cultivated according to the producer’s instructions. The reference” for “The reference”

[6] = system: THP1-Blue™ NF-κB cells; test: Cell viability, CCK-8, serum-free medium; type: cell-based, human; details: THP1-Blue NF-κB cells, serum-free medium, 24 h treatment, CCK-8; read-out: IC50 ± SEM, cytotoxic effect
Procedure: The cells were cultivated in RPMI (Roswell Park Memorial Institute) 1640 medium (Biosera; Nuaille, France) supplemented with 10% fetal bovine serum (FBS) and antibiotics (100 U/mL penicillin and […] streptomycin) (both from Merck). All further experiments were performed in serum-free medium. The effect of the test compounds dissolved in DMF on cell viability after 24 h incubation was determined using a Cell Counting Kit-8 (CCK-8; Merck) according to the manufacturer’s instructions, similarly as previously described.

[7] = system: PPARγ; test: Immunocytochemical analysis of PPARγ expression and localisation; type: cell-based, human; details: 100 nM, 1 h pre-treatment, LPS-stimulated THP1-Blue NF-κB macrophages
Procedure: THP1-Blue™ NF-κB cells were seeded onto a µ-Slide 8 Well (Ibidi; Gräfelfing, Germany) and differentiated into macrophages by […] (PMA) at the final concentration of 50 ng/mL, as was described previously.
Differentiated macrophages were washed by PBS and covered by fresh serum-free medium for 2 h. […] One hour later, the cells were challenged by LPS for 24 h. Then, the cells were washed by PBS and fixed by 4% paraformaldehyde dissolved in PBS for 10 min. Cell permeabilization and blocking of free binding sites were performed by 0.1% (v/v) Triton X100 and 5% (w/v) bovine serum albumin (BSA) dissolved in PBS for 1 h at room temperature. After that, cells were washed by PBS with 0.1% (v/v) Tween 20 and covered by fresh PBS with 5% BSA and 0.1% Tween 20 containing Alexa Fluor® 546-labelled anti-PPARγ antibody diluted 1:100 (catalogue number sc-7273; Santa Cruz Biotechnology; Dallas, TX, USA) for a further 24 h. Then, cells were washed by PBS with 0.1% Tween 20 and incubated with Hoechst stain diluted 1:2000 for 10 min. The remaining stain was washed out by PBS and covered by fresh PBS for further microscope analysis. The confocal microscope Leica TCS SP8 MP (Leica Microsystems, Mannheim, Germany) was used for obtaining the images for the immunocytochemical analysis of PPARγ expression and localization.

[8] = system: MCF-7 cells; details: literature data ref 22; cited from earlier work
[9] = system: Caco-2 cells; details: read-out: IC50, antiproliferative effect, Caco-2 cells; cited from earlier work
[10] = system: A2780 cells; details: 23 nM concentration ref 25; cited from earlier work
[11] = system: 22Rv1 prostate carcinoma cells; test: In vitro cytotoxicity (MTT assay), 22Rv1; type: cell-based, human; details: ± standard deviation, triplicate
Procedure: as §1, with “The testing was performed on the ovarian carcinoma (A2780), Cisplatin-resistant ovarian carcinoma (A2780R), prostate adenocarcinoma (PC-3), prostate carcinoma (22Rv1), and leukemia monocytic (THP-1) and intestinal colon adenocarcinoma (LS180) human cell lines that were obtained from the ATCC collection of cell lines and cultivated according to the producer’s instructions. The reference” for “The reference”

[12] = system: LS180 intestinal colon adenocarcinoma cells; test: In vitro cytotoxicity (MTT assay), LS180; type: cell-based, human; details: ± standard deviation, triplicate
Procedure: as §1, with “The testing was performed on the ovarian carcinoma (A2780), Cisplatin-resistant ovarian carcinoma (A2780R), prostate adenocarcinoma (PC-3), prostate carcinoma (22Rv1), and leukemia monocytic (THP-1) and intestinal colon adenocarcinoma (LS180) human cell lines that were obtained from the ATCC collection of cell lines and cultivated according to the producer’s instructions. The reference” for “The reference”

[13] = system: A2780 cells; test: Cell cycle analysis (flow cytometry); type: cell-based, human; details: A2780, half-cytotoxic concentration, 24 h; for Number of cells in the G0/G1 phase: vs untreated control
Procedure: After 24 h, the cells were treated with a 4 µM solution of complex (1) and cultivated for the next 24 h. Then, the cells were washed once with PBS (0.1 M, pH 7.4), and cell cycle analysis was performed using a BD Cycletest^TM Plus DNA kit (Becton Dickinson, Franklin Lakes, NJ, USA) according to the manufacturer’s protocol. The data were acquired using a BD FACSVerse flow cytometer (Becton Dickinson, USA) in three independent experiments, each performed in duplicate, while at least 5 × 10^3 events were recorded for each sample.

[14] = system: A2780 cells; test: Induction of apoptosis, Annexin V-FITC/PI staining; type: cell-based, human; details: A2780, half-cytotoxic concentration, 24 h
Procedure: (§2) The induction of cell death by complex (1) was studied by two methods in the A2780 cell line. Firstly, the induction of apoptosis was tested using an Annexin V-FITC/PI commercial kit (V13242, Thermo Fisher Scientific, USA). Second, caspase 3/7 activation was monitored using the CellEvent™ Caspase-3/7 Green Flow Cytometry Assay Kit (C10427, Thermo Fisher Scientific, USA). Both assays were performed according to the manufacturers’ protocols with one modification in the caspase induction assay: the use of CellEvent^TM Caspase-3/7 Green Detection Reagent was only for the detection of caspase 3/7 activation. The general procedure was as follows: 5 × 10^4 cells per well were seeded in a 24-well cell culture plate, and after 24 h, the cells were treated with 4 µM solution of complex (1) and cultivated for next 24 h. […] The trypsin was blocked by adding the cell culture medium to a final volume of 500 µL, and the resulting cell suspensions were divided into two separate 250 µL aliquots. The first set of aliquots was used to evaluate the Annexin V-FITC/PI assay, whilst the second one was used for the caspase 3/7 activation assay. Both assays were performed using a BD FACSVerse flow cytometer (Becton Dickinson, USA) in three independent experiments, each performed in duplicate.

[15] = system: caspases 3/7; test: Caspase 3/7 activation (flow cytometry); type: cell-based, human; details: A2780, half-cytotoxic concentration, 24 h
Procedure: as §2

[16] = system: A2780 cells; test: Induction of autophagy (CYTO-ID kit); type: cell-based, human; details: A2780, half-cytotoxic concentration, 24 h
Procedure: The induction of autophagy by complex (1) was studied using a CYTO-ID® Autophagy Detection Kit 2.0 (ENZO, New York, NY, USA) according to the manufacturer’s protocol. Briefly, the A2780 cells were seeded in a 24-well cell culture plate at 5 × 10^4 cells per well and cultivated for 24 h. The next day, the cells were treated with complex (1) at 4 µM. […] Then, the cells were stained with CYTO-ID® Green stain solution and incubated for 30 min in the dark. After the final wash with PBS, the cell suspensions were analyzed using the BD FACSVerse flow cytometer (Becton Dickinson, USA) in three separate experiments, while at least 10^4 events were recorded for each sample prepared in duplicates. The cells incubated with the mixture of chloroquine (10 µM) and rapamycin (0.5 µM) for 18 h were used as a positive control.

[17] = system: A2780 cells; test: Intracellular ROS/superoxide production; type: cell-based, human; details: A2780, half-cytotoxic concentration, 24 h, with or without pyocyanin
Procedure: ROS induction in A2780 cells after incubation with 4 μM complex (1) was studied using a ROS-ID® Total ROS/Superoxide detection kit (Enzo Life Sciences, Farmingdale, NY, USA) according to the manufacturer’s protocol. The cells were seeded in a 96-well cell culture plates at 10^4 cells per well and cultivated for 24 h, followed by 24 h experimental treatment. Then, the cells were stained with ROS/superoxide probe mixture and incubated at 37 °C in the dark for 60 min. Finally, the fluorescence was measured using a microplate reader Infinite M200Pro (Tecan, Männedorf, Switzerland). The control samples contained 500 µM pyocyanin, and three independent experiments were conducted, each in triplicate.

[18] = system: A2780 cells; test: Mitochondrial membrane potential analysis (MITO-ID); type: cell-based, human; details: A2780, half-cytotoxic concentration, 24 h
Procedure: The A2780 cells were seeded in 24-well cell culture plates at 5 × 10^4 cells/well and cultivated for 24 h. The next day, the complex (1) was added to a final concentration of 4 µM, and the cells were incubated for another 24 h. […] The cells were then isolated by centrifugation and resuspended in a staining solution prepared according to the manufacturer’s protocol from a MITO-ID® Membrane Potential Detection kit (Enzo Life Sciences, USA). Finally, the cells were analyzed using a BD FACSVerse flow cytometer (Becton Dickinson, USA). The control was carried out by treatment with 2 µM carbonyl cyanide 3-chlorophenylhydrazone (CCCP). Three independent experiments were conducted, each in duplicate.

[19] = system: THP-1 leukemia monocytic cells; test: In vitro cytotoxicity (MTT assay), THP-1; type: cell-based, human; details: ± standard deviation, triplicate
Procedure: as §1, with “The testing was performed on the ovarian carcinoma (A2780), Cisplatin-resistant ovarian carcinoma (A2780R), prostate adenocarcinoma (PC-3), prostate carcinoma (22Rv1), and leukemia monocytic (THP-1) and intestinal colon adenocarcinoma (LS180) human cell lines that were obtained from the ATCC collection of cell lines and cultivated according to the producer’s instructions. The reference” for “The reference”

[20] = system: NF-κB; test: NF-κB activity in LPS-challenged cells (SEAP reporter); type: cell-based, human; details: 100 nM, 1 h pre-treatment, LPS 24 h, THP1-Blue NF-κB monocytes
Procedure: The effect of the tested compounds to influence the function of transcription factor NF-κB was determined on lipopolysaccharide (LPS)-challenged THP1-Blue™ NF-κB cells as we described previously. […] After 24 h incubation, the activity of NF-κB was determined as the amount of secreted embryonic alkaline phosphatase using Quanti-Blue™ medium (Invivogen).

[21] = MTT, 24 h incubation, ± standard deviation, triplicate, read-out: IC50, A2780

Compound	IC50 [1, 21] [µM]	IC50 [2] [µM]	IC50 [3] [µM]	IC50 [4] [µM]	Effect on the amount of PPARγ [7]	IC50 [11] [µM]	IC50 [12] [µM]	Number of cells in the G0/G1 phase [13]	Cells with active executioner caspases 3/7 [15]	Induction of autophagy [16]	Damage to mitochondrial membranes [18]	other results
6-furfuryladenine [Kinetin]	> 25	> 25	> 25	> 25	did not show this effect	–	–	–	–	–	–	IC50 ([5]; read-out: IC50 of kinetin, PC-3, concentration range 0.01–25 μM): > 25 µM; IC50 [6]: > 10 µM; IC50 [8]: 52 µM
[Au(tpy)Cl(2-TU)]	–	–	–	–	–	–	–	–	–	–	–	IC50 [9]: 0.51 ± 0.28 µM
CCN(CC)C(=S)[S][Au][PH](c1ccccc1-c1ccccc1)(C(C)(C)C)C(C)(C)C [diethyldithiocarbamato-[(1,1′-biphenyl-2-yl)di-tert-butylphosphine] gold(I) complex]	–	–	–	–	–	–	–	–	–	–	–	Cells in G2/M arrest, A2780 [10]: around 30%
N.N.[Cl][Pt][Cl] [Cisplatin]	–	> 50	> 50	> 50	–	28.2 ± 4.2	> 50	significant decrease in the number of cells in the G0/G1 phase	around 50%	significantly induced the autophagy	Significant changes in mitochondrial membrane permeability	Effect on the cell cycle [13]: arrested a significant number of cells in S-phase; Cells in early and late-stage apoptosis [14]: around 40%; Intracellular oxidative stress, ROS and superoxide levels [17]: did not cause a significant increase in the intracellular oxidative stress
c1ccc([PH]([Au][n]2cnc3c(NCc4ccco4)ncnc32)(c2ccccc2)c2ccccc2)cc1 [[Au(kin)(PPh3)] (1), [Au(kin)(PPh3)]]	2.9 ± 0.7	5 ± 1.5	4.8 ± 1.3	> 10	slightly increase the amount of PPARγ	3.7 ± 0.5	> 10	significant decrease in the number of cells in the G0/G1 phase	around 40%	not shown to cause metabolic stress strong enough to induce the autophagy	clearly the least effective	IC50 ([1]; 24 h incubation, read-out: Time-dependent in vitro cytotoxicity (IC50), A2780, 24 h): 2.9 ± 0.7 µM; IC50 ([1]; 72 h incubation, read-out: Time-dependent in vitro cytotoxicity (IC50), A2780, 72 h): 3 ± 0.6 µM; IC50 ([1]; read-out: IC50, A2780, after 48 h and 72 h incubation, 48 h and 72 h incubation, insignificant changes): ~3 µM; IC50 ([1]; read-out: Time-dependent in vitro cytotoxicity (IC50), A2780, 48 h, 48 h incubation): 3 ± 0.3 µM; IC50 [19]: 1.1 ± 0.2 µM; IC50 ([5]; PC-3, 22Rv1, and THP-1, read-out: IC50 against human cancer cell lines (summary)): 1 to 5 µM; selectivity index (SI) ([5]; IC50 for normal cell line/IC50 for cancerous cell line): higher than 2; Population of cells in G2/M phase [13]: 24.8 ± 1.0%; Population of cells in S phase [13]: 22.6 ± 1.6%; Cells in early stage apoptosis (Annexin V+/PI-) [14]: around 10%; Cells in late stage apoptosis (Annexin V+/PI+) [14]: around 30%; Effect on LPS-stimulated NF-κB activity [20]: did not show any effect on the activity of NF-κB
